Measured values published in patent publication US12195427B2, “MASP-2 inhibitors and methods of use” (priority 2018, dated 2025).

Target: MASP-2 CCP2-SP (Homo sapiens (Human), UniProt O00187)
Experiment: MASP-2 co-crystallization, X-ray crystallography and structure analysis (H-bonds, van der Waals contacts);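 as to Ligand-pharmacophore element distance, pharmacophore element C2: distance from averaged pharmacophore element to bound ligand; missing value means element absent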;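 as to Ligand-pharmacophore element distance, pharmacophore element C3: distance from averaged pharmacophore element to bound ligand; missing value means element absent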;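 as to Ligand-pharmacophore element distance, pharmacophore element C4: distance from averaged pharmacophore element to bound ligand; missing value means element absent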;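 as to Ligand-pharmacophore element distance, pharmacophore element C5: distance from averaged pharmacophore element to bound ligand; missing value means element absent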
Set-up: van der Waals contact distance, MASP-2 HIS 483 atom CD2 / van der Waals contact distance, MASP-2 HIS 483 atom NE2 / van der Waals contact distance, SER 654 C to compound atom / van der Waals contact distance, SER 654 O to compound atom / van der Waals contact distance, TRP 655 C to compound atom / van der Waals contact distance, MASP-2 GLY 528 atom CA / van der Waals contact distance TRP 655 atom CZ3 / van der Waals contact distance TRP 655 atom N / van der Waals contact distance TRP 655 atom CE3 / van der Waals contact distance GLY 656 atom C / van der Waals contact distance GLY 656 atom CA / van der Waals contact distance GLY 656 atom O / van der Waals contact distance, MASP-2 TYR 607 atom CD1 / van der Waals contact distance, MASP-2 PRO 606 atom O / d(C3,CA1) / d(CA1,N1)2 / d(H4,O1) / d(H4,O2) / d(O1,O2) / d(CA1,O2) / d(CA6,O1) / d(CA6,O2) / d(CA1,C5) / d(O2,H3) / d(N2,C2) / d(CA5,N2) / d(N2,C4) / d(N2,C6) / d(N2,CA3) / d(N2,O3) / d(O4,H2): unit not given beside the values
Conditions: for Ligand-pharmacophore element distance, pharmacophore element C2 / Ligand-pharmacophore element distance, pharmacophore element C3 / Ligand-pharmacophore element distance, pharmacophore element C4 / Ligand-pharmacophore element distance, pharmacophore element C5 / Ligand-pharmacophore element distance, pharmacophore element C6 / Ligand-pharmacophore element distance, pharmacophore element C7 / Ligand-pharmacophore element distance, pharmacophore element CA1 / Ligand-pharmacophore element distance, pharmacophore element CA2 / Ligand-pharmacophore element distance, pharmacophore element CA3 / Ligand-pharmacophore element distance, pharmacophore element CA4 / Ligand-pharmacophore element distance, pharmacophore element CA5 / Ligand-pharmacophore element distance, pharmacophore element CA6: Table A4-1; for d(C3,CA1) / d(CA1,N1)2 / d(CA1,O1) / d(CA1,O2) / d(H4,O1) / d(H4,O2) / d(O1,O2): Table A5-1 pharmacophore: distance between elements, S2/S1 region; for a(C3, CA1, O1) / a(CA1, O1, O2) / a(O1, O2, H4) / a(N1, CA1, O1) b): Table A6-1 pharmacophore angle; for a(N1, CA1, O1) b): Methyl-amino-pyridine compounds; for Pharmacophore torsion angle a(C3, CA1, O1, H4) / Pharmacophore torsion angle a(H4, O1, O2, H3) / Pharmacophore torsion angle a(H4, O1, O2, N2) / Pharmacophore torsion angle a(N1, CA1, O1, H4) / Pharmacophore torsion angle a(O1, H4, O2, CA1): Table A7-1
Outline: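 Contacts and H-bonds come from partially refined soaked-crystal structures of recombinant human CCP2-SP made in E. coli, solved by molecular replacement against 1Q3X fragments. Where several ligand poses appeared, only one was analysed; listed nonbonded contacts may include possible H-bond pairings.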

[1] = Table A5-2 pharmacophore distance, S3/S4 region
[2] = between pharmacophore elements of the bound compound
[3] = Table A7-2, between pharmacophore elements of the bound compound
[4] = Table A8-6, nearest protein atom in cell to the left

Chain of MASP-2 CCP2-SP (O00187 445-686): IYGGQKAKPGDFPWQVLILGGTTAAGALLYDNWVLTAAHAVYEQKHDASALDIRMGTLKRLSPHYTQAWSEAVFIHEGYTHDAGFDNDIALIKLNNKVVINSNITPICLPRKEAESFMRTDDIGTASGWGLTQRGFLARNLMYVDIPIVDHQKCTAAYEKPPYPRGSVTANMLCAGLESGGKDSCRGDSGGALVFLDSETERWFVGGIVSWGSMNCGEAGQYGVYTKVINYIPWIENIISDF
Chain of MASP-2 CCP2-SP (O00187 364-432 partner): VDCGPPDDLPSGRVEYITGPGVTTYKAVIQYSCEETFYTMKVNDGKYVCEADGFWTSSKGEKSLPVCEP

SMILES | Ligand-pharmacophore element distance, pharmacophore element C2 | Ligand-pharmacophore element distance, pharmacophore element C3 | Ligand-pharmacophore element distance, pharmacophore element C4 | Ligand-pharmacophore element distance, pharmacophore element C5 | Ligand-pharmacophore element distance, pharmacophore element C6 | Ligand-pharmacophore element distance, pharmacophore element C7 | Ligand-pharmacophore element distance, pharmacophore element CA1 | Ligand-pharmacophore element distance, pharmacophore element CA2 | Ligand-pharmacophore element distance, pharmacophore element CA3 | Ligand-pharmacophore element distance, pharmacophore element CA4 | Ligand-pharmacophore element distance, pharmacophore element CA5 | Ligand-pharmacophore element distance, pharmacophore element CA6 | d(CA1,O1) | d(CA1,O2) | d(H4,O1) | d(H4,O2) | d(O1,O2) | d(O2,H3) [1] | d(O2,N2) [1] | a(CA1, O1, O2) | also measured
Cc1nc(N)ccc1CNC(=O)[C@H](C)NC(=O)[C@H]1C[C@H](Cc2ccccc2Br)CN1.O=C(O)C(F)(F)F.O=C(O)C(F)(F)F [1372_B] | 0 | 0.1 | 0 | 0 | 1.46 | 0 | 0.57 | 1.41 | 0 | 0 | 0 | 0 | 4.37 | 4.00 | 4.39 | 3.91 | 3.35 | 2.23 | 2.63 | 107.52 | d(C3,CA1): 2.85; d(CA1,N1)2: 1.38; d(N2,C6) [1]: 5.56; d(N2,CA2) [1]: 6.02; a(C3, CA1, O1): 149.88; a(O1, O2, H4): 132.88; a(N1, CA1, O1) b): 174.13; a(O1, O2, H3) (Table A6-2 pharmacophore angle): 139.74; a(O1, O2, N2) (Table A6-2 pharmacophore angle): 143.19; a(O2, N2, C6) (Table A6-2 pharmacophore angle): 115.79; a(O2, N2, CA2) (Table A6-2 pharmacophore angle): 157.88; Pharmacophore torsion angle a(C3, CA1, O1, H4) [2]: 25.77; Pharmacophore torsion angle a(H4, O1, O2, H3) [2]: 99.85; Pharmacophore torsion angle a(H4, O1, O2, N2) [2]: 139.62; Pharmacophore torsion angle a(N1, CA1, O1, H4) [2]: 4.96; Pharmacophore torsion angle a(O1, H4, O2, CA1) [2]: −82.66; Pharmacophore torsion angle a(O1, O2, N2, C6) [3]: 141.41; Pharmacophore torsion angle a(O1, O2, N2, CA2) [3]: 109.73
C[C@H](NC(=O)[C@H]1C[C@@H](c2ccccc2)CN1)C(=O)NCc1ccc2c(N)nccc2c1.Cl.Cl [1089_B] | 0 | 0 | 0 | 0 | 0 | 0 | 0.99 | 0 | 0 | 0 | 1.16 | 0 | 5.68 | 5.17 | 3.14 | 3.69 | 3.33 | 5.91 | 2.70 | 99.20 | d(CA5,N2) [1]: 5.10; a(O1, O2, H4): 122.31; a(O1, O2, H3) (Table A6-2 pharmacophore angle): 152.83; a(O1, O2, N2) (Table A6-2 pharmacophore angle): 141.07; Pharmacophore torsion angle a(H4, O1, O2, H3) [2]: 89.27; Pharmacophore torsion angle a(H4, O1, O2, N2) [2]: −178.39; Pharmacophore torsion angle a(O1, H4, O2, CA1) [2]: −94.63; Pharmacophore torsion angle a(O1, O2, N2, CA5) [3]: 133.38; Pharmacophore protein distance to MET_658 (first MET_658 column) (Table A8-6, 6th residue column, nearest protein atom in cell to the left): 2.61; Pharmacophore protein distance to MET_658 (second MET_658 column) (Table A8-6, 9th residue column, nearest protein atom in cell to the left): 3.31; Pharmacophore protein distance to GLY_528 [4]: 3.59; Pharmacophore protein distance to PHE_529 [4]: 2.81; Pharmacophore protein distance to PRO_608 [4]: 3.90; Pharmacophore protein distance to SER_611 [4]: 2.79; Pharmacophore protein distance to TRP_655 (Table A8-6, pharmacophore elements C6, CA3, O3, H1, nearest protein atom in cell to the left): 3.57
Cc1nc(N)ccc1CNC(=O)[C@H](C)NC(=O)[C@H]1C[C@H](Cc2ccccc2Br)CN1.O=C(O)C(F)(F)F.O=C(O)C(F)(F)F [1372_A] | 0 | 0.09 | 1.91 | 0 | 0 | 0 | 0.55 | 0.47 | 0 | 0 | 0 | 0 | 4.38 | 3.94 | 4.40 | 3.88 | 3.32 | 2.30 | 2.66 | 106.33 | d(C3,CA1): 2.85; d(CA1,N1)2: 1.38; d(N2,C4) [1]: 6.06; d(N2,C4)4 [1]: 6.06; d(N2,CA2) [1]: 5.99; a(C3, CA1, O1): 149.88; a(O1, O2, H4): 133.23; a(N1, CA1, O1) b): 174.16; a(O1, O2, H3) (Table A6-2 pharmacophore angle): 137.15; a(O1, O2, N2) (Table A6-2 pharmacophore angle): 140.15; a(O2, N2, C4) (Table A6-2 pharmacophore angle): 159.60; a(O2, N2, C4) 2 (Table A6-2 pharmacophore angle): 127.51; a(O2, N2, CA2) (Table A6-2 pharmacophore angle): 155.91; Pharmacophore torsion angle a(C3, CA1, O1, H4) [2]: 25.78; Pharmacophore torsion angle a(H4, O1, O2, H3) [2]: 99.84; Pharmacophore torsion angle a(H4, O1, O2, N2) [2]: 136.36; Pharmacophore torsion angle a(N1, CA1, O1, H4) [2]: 5.73; Pharmacophore torsion angle a(O1, H4, O2, CA1) [2]: −83.68; Pharmacophore torsion angle a(O1, O2, N2, CA2) [3]: 129.48
